We go through one compound from PMC8799717, “Pharmacological targeting PIKfyve and tubulin as an effective treatment strategy for double-hit lymphoma” (Cell Death Discovery, 2022).

Some targets named below: ACVR1B (Homo sapiens, UniProt P36896); CAMKK1 (Homo sapiens, UniProt Q8N5S9); CDK4 (Homo sapiens, UniProt P11802); CSNK1E (Homo sapiens, UniProt P49674); EGFR (Homo sapiens, UniProt P00533); ERN1 (Homo sapiens, UniProt O75460); FES (Homo sapiens, UniProt P07332); FGFR1 (Homo sapiens, UniProt P11362); FGFR3(G697C) (Homo sapiens, UniProt P22607, G697C); FLT3(D835V) (Homo sapiens, UniProt P36888, D835V); GAK (Homo sapiens, UniProt O14976); GRK2 (Homo sapiens, UniProt P25098); KIT(V559D,V654A) (Homo sapiens, UniProt P10721, V559D/V654A); MAP4K3 (Homo sapiens, UniProt Q8IVH8); MET(Y1235D) (Homo sapiens, UniProt P08581, Y1235D); MKNK2 (Homo sapiens, UniProt Q9HBH9); PIK3CA(H1047L) (Homo sapiens, UniProt P42336, H1047L); PRKCH (Homo sapiens, UniProt P24723); SRPK3 (Homo sapiens, UniProt Q9UPE1); TESK1 (Homo sapiens, UniProt Q15569).

Assay in all cases: biochemical
Common to all, as to parameters: KINOMEscan active-site-directed competition binding panel, 468 kinases, percent of DMSO control at 1 uM
Details in all cases: KINOMEscan binding, percent of DMSO control; read-out: Ctrl%

Assay [1] addresses T1, ABL1(F317I)-nonphosphorylated (Homo sapiens, UniProt P00519, F317I).
T1 construct: nonphosphorylated

The target in another assay is T2, DLK (Homo sapiens, UniProt Q12852).
T2 construct: gene MAP3K12

A further assay deals with T3, ERK8 (Homo sapiens, UniProt Q8TD08).
T3 construct: gene MAPK15

For the next assay, the target named is T4, MEK6 (Homo sapiens, UniProt P52564).
T4 construct: gene MAP2K6

ERN1, sequence (O75460 whole entry): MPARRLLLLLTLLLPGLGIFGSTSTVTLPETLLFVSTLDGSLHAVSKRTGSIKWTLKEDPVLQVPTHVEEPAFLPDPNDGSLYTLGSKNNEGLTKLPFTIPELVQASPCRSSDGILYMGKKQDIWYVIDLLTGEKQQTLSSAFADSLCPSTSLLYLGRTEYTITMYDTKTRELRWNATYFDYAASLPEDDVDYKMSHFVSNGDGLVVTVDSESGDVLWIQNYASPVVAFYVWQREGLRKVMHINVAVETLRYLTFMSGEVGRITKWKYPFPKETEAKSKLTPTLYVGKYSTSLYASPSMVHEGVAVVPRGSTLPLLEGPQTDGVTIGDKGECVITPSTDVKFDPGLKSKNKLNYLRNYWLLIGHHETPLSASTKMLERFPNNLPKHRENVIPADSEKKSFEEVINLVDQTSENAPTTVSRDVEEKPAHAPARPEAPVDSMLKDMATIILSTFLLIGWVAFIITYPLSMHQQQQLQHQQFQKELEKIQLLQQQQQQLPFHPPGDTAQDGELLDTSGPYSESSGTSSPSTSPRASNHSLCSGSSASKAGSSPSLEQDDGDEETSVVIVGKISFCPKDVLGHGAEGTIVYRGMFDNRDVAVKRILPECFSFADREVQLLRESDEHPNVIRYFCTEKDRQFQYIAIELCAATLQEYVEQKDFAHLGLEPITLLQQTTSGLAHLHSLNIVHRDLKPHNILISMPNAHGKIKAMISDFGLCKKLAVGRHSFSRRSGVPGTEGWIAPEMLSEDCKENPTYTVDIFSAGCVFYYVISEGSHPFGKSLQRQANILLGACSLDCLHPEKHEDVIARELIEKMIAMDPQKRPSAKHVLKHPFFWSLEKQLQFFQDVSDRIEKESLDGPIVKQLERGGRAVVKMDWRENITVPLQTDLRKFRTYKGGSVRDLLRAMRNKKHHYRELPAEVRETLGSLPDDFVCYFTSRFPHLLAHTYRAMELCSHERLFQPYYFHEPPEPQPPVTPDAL
SRPK3, sequence (Q9UPE1 whole entry): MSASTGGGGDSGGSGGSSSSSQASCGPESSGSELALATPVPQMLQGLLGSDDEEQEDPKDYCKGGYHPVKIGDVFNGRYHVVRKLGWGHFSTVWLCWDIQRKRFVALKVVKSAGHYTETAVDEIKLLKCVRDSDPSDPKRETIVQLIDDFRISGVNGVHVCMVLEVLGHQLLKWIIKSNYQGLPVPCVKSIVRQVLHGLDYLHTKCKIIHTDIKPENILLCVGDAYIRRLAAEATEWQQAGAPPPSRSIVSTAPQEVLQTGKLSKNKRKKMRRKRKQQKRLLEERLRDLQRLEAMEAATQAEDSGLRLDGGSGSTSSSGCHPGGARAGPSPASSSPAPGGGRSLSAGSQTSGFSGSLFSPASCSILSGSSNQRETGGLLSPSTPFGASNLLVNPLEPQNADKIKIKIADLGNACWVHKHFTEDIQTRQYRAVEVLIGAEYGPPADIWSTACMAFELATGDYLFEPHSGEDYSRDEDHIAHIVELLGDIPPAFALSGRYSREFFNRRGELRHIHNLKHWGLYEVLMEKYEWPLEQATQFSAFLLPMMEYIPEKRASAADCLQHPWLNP
T3 sequence (Q8TD08 whole entry): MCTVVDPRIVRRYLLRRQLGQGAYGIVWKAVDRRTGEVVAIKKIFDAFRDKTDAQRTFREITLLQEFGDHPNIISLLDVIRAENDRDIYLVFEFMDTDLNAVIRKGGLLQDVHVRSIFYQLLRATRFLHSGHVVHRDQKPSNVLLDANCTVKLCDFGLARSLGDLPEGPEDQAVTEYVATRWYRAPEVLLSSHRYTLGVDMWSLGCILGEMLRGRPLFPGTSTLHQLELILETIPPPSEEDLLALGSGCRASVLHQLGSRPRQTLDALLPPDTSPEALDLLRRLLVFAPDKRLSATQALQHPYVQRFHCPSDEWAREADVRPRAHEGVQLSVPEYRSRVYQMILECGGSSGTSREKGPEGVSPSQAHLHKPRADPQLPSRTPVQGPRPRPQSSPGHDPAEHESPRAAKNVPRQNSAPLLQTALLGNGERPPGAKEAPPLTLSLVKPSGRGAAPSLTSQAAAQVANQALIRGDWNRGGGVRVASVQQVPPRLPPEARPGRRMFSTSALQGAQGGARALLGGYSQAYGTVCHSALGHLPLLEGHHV
EGFR, sequence (P00533 whole entry): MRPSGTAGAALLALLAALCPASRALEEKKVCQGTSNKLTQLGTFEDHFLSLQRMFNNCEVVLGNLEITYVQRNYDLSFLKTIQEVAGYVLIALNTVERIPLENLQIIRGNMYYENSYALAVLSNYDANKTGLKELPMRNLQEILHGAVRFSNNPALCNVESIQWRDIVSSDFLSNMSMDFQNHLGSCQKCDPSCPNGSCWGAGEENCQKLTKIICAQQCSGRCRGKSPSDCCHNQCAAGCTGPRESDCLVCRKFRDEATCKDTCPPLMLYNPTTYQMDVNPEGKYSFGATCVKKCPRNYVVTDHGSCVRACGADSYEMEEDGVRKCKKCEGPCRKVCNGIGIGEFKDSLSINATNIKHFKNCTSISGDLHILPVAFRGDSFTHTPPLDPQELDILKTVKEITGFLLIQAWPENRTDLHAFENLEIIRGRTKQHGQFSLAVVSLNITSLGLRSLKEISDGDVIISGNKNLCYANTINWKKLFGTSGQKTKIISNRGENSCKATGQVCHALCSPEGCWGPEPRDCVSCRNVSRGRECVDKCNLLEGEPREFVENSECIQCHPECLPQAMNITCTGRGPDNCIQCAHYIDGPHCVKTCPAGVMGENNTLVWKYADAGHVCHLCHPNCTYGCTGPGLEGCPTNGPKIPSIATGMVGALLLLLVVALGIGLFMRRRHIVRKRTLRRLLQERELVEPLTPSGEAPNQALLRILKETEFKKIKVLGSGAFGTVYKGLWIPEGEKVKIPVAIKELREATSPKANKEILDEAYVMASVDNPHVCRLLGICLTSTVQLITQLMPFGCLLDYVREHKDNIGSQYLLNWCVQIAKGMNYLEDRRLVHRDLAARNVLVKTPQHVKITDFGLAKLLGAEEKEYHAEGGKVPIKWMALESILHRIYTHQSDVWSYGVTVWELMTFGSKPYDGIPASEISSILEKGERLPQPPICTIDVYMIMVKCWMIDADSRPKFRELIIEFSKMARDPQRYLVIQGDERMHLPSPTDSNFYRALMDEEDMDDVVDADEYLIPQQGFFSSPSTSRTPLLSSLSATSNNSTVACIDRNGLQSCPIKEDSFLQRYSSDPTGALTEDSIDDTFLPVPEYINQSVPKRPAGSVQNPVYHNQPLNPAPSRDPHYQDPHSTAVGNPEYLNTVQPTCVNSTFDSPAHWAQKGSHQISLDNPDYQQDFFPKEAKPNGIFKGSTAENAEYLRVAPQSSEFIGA
GAK, sequence (O14976 whole entry): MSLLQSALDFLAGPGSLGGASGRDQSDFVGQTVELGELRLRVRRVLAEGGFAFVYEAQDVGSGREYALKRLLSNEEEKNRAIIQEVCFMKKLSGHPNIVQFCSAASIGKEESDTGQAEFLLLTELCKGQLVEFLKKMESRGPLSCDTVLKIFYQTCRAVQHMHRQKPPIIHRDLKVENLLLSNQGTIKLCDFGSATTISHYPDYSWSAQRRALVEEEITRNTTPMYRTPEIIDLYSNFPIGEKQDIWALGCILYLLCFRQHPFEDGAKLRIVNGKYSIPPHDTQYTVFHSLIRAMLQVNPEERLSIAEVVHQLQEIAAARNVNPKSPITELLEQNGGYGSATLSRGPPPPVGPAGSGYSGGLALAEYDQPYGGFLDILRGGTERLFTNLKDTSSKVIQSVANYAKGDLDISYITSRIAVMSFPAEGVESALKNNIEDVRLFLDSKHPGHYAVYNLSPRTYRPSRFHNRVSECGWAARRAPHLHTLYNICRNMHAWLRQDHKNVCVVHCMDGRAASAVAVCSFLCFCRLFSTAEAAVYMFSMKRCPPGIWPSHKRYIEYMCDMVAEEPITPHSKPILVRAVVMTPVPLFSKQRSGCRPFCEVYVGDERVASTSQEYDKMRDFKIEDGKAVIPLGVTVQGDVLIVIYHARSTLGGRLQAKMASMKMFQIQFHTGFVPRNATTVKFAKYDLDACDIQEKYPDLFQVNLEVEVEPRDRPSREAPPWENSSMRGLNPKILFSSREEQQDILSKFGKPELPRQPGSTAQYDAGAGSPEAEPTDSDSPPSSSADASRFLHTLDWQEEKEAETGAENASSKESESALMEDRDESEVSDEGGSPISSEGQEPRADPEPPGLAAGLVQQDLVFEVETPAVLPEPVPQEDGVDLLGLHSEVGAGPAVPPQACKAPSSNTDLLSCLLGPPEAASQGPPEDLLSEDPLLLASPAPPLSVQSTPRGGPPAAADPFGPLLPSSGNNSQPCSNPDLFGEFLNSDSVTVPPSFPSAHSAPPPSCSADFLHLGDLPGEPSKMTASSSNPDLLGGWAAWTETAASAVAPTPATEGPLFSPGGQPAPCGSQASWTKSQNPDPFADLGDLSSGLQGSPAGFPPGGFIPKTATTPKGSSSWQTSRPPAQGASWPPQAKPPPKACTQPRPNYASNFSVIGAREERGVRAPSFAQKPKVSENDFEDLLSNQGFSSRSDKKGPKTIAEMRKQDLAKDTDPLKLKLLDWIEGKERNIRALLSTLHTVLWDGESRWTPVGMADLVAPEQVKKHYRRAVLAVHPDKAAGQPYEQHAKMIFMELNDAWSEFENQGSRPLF
CDK4, sequence (P11802 whole entry): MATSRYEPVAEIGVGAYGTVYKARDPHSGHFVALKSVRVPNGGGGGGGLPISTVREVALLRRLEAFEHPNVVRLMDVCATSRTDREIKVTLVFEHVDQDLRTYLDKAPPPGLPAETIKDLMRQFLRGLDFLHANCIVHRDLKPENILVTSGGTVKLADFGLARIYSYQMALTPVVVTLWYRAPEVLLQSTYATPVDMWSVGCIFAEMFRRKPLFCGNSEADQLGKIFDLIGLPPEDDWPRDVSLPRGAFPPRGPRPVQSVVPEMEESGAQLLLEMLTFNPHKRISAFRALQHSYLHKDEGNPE

`Cc1ccc(NC(=O)c2cccc(C(F)(F)F)c2)cc1Nc1cc(-c2cccnc2)nc2[nH]ccc12` [HZX-02-059]: the remaining binding at 1 µM in [1] was found to be 40%; on ACVR1B it was 72%; on CAMKK1, 97%; at CDK4 it was 100%; on CSNK1E, 97%; at DLK, 100%. For the same compound, the remaining binding at 1 µM on EGFR amounted to 67%; at ERK8, 92%; at ERN1, 66%; at FES it was 100%; on FGFR1, 93%; on FGFR3(G697C), 100%. The remaining binding at 1 µM on FLT3(D835V) came to 100%; on GAK, 91%; at GRK2, 100%; on KIT(V559D,V654A) it was 61%; on MAP4K3 it was 97%; at MEK6, 88%. The remaining binding at 1 µM at MET(Y1235D) amounted to 95%; on MKNK2 it was 80%; at PIK3CA(H1047L) it was 56%; at PRKCH, 90%; on SRPK3, 93%; at TESK1, 77%.
